Values quoted from earlier work in patent US20260102357A1, “Sulfur-Containing Ionizable Lipids for the Delivery of Therapeutic Agents” (NanoVation Therapeutics Inc., priority 2022, published 2026).

Conditions: delivery of siRNA; fold less siRNA than KC2

CCCCC/C=C\C/C=C\CCCCCCCCC(CCCCCCCC/C=C\C/C=C\CCCCC)OC(=O)CCCN(C)C [MC3, DLin-MC3-DMA]
siRNA required relative to KC2: about 3 times less
